Columns and labels:
HCT116-WT cells = experiment: Inhibitory activity against cell proliferation (CellTiter Glo, 6 days), HCT116-WT; assay type: cell-based; conditions: 144 h, HCT116-WT cells, 6 days, CellTiter Glo; read-out: HCT116-WT IC50
In short: (§1)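 250 cells/well, McCoy's 5A + 10% FBS, o/n 37°C 5% CO2; cpd 8-pt 4-fold from 10000 nM, 6 d; CTG lum on day 7; IC50 vs DMSO.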

HCT116 MTAP KO cells = experiment: Inhibitory activity against cell proliferation (CellTiter Glo, 6 days), HCT116 MTAP KO; assay type: cell-based; conditions: for IC50: Homo sapiens, HCT-116, 144 h, HCT116 MTAP KO cells, 6 days, CellTiter Glo, read-out: HCT116 MTAP KO IC50; for Selectivity HCT 116-WT/ HCT116 MTAP KO: ratio of IC50 HCT116-WT / HCT116 MTAP KO
In short: as §1

PRMT5-MTA = PRMT5-MTA (Homo sapiens, UniProt O14744); experiment: Enzymatic inhibitory activity against PRMT5-MTA (AlphaScreen); assay type: biochemical; conditions: read-out: IC50
In short: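 PRMT5/[…] (1 nM) was preincubated for 30 min at room temperature with 1 µM […] and 2.5 µM SAM, then exposed to compound (10-point, 3-fold from 1000 nM) for 15 min at 23 °C. Histone H4 substrate (5 nM) was added and reacted for 45 min at 23 °C. Symmetric dimethyl-R3 H4 was detected by AlphaScreen and IC50 calculated.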

Sequence of PRMT5-MTA (O14744 whole entry): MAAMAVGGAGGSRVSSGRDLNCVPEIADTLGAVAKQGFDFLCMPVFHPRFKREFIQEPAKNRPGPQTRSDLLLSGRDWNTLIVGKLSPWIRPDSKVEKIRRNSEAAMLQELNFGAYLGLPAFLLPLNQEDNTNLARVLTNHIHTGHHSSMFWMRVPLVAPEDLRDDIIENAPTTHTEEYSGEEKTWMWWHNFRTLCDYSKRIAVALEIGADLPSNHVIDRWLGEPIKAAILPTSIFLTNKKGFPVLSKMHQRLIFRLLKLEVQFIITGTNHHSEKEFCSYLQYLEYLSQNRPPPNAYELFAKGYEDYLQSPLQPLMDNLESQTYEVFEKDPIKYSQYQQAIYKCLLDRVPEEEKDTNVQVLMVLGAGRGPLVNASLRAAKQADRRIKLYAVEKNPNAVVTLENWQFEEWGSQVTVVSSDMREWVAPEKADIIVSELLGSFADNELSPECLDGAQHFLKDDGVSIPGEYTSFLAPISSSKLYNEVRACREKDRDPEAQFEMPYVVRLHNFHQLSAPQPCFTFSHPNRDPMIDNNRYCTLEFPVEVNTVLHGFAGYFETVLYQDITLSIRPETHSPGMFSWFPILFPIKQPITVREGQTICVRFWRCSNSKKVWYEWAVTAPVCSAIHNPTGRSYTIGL
Sequence of PRMT5-MTA (Q9BQA1 whole entry partner): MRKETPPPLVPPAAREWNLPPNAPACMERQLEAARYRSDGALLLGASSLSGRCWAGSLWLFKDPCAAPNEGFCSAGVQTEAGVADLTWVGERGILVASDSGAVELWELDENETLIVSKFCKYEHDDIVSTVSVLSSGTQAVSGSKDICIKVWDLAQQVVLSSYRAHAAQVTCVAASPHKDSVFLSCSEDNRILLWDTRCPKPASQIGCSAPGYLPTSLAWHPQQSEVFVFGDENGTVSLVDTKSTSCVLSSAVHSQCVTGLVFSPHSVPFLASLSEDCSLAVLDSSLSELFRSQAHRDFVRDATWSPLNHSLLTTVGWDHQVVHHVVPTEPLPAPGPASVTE

Row | SMILES | IC50 (HCT116-WT cells) | IC50 (HCT116 MTAP KO cells) | Selectivity HCT 116-WT/ HCT116 MTAP KO (HCT116 MTAP KO cells) | IC50 (PRMT5-MTA)
1 | Cc1cc2cc(C(=O)N(Cc3ccc(C(F)(F)F)cn3)N(C)c3ncccc3C(F)F)ccc2nc1N [Example 117, 2-amino-N'-(3-(difluoromethyl)pyridin-2-yl)-N',3-dimethyl-N-((5-(trifluoromethyl)pyridin-2-yl)methyl)quinoline-6-carbohydrazide] | 1250 nM | 89 nM | 14.00 | 1.8 nM
2 | Cc1cc2cc(C(=O)N(Cc3ccc(C(F)(F)F)cn3)N(C)c3ncc4cc[nH]c4n3)ccc2nc1N [Example 119, 2-amino-N',3-dimethyl-N'-(7H-pyrrolo[2,3-d]pyrimidin-2-yl)-N-((5-(trifluoromethyl)pyridin-2-yl)methyl)quinoline-6-carbohydrazide] | 1810 nM | 90 nM | 20.13 | 2.3 nM
3 | Cc1cc2cc(C(=O)N(Cc3cc4cccc(F)c4cn3)N(C)c3ncccn3)ccc2nc1N [Example 123, 2-amino-N-((8-fluoroisoquinolin-3-yl)methyl)-N',3-dimethyl-N'-(pyrimidin-2-yl)quinoline-6-carbohydrazide] | 1900 nM | 88 nM | 21.61 | 2.9 nM
4 | Cc1cc2cc(C(=O)N(Cc3ccc(C(F)(F)F)nn3)N(C)c3ncccn3)ccc2nc1N [Example 124, 2-amino-N',3-dimethyl-N'-(pyrimidin-2-yl)-N-((6-(trifluoromethyl)pyridazin-3-yl)methyl)quinoline-6-carbohydrazide] | 6450 nM | 220 nM | 29.33 | 5.4 nM
5 | Cc1cc2cc(C(=O)N(Cc3ccc(C(F)(F)F)cn3)N(C)c3c(F)ccc4nccnc34)ccc2nc1N [Example 125, 2-amino-N'-(6-fluoroquinoxalin-5-yl)-N',3-dimethyl-N-((5-(trifluoromethyl)pyridin-2-yl)methyl)quinoline-6-carbohydrazide] | 2310 nM | 84 nM | 27.54 | 1.7 nM
6 | Cc1cc2cc(C(=O)N(Cc3ccc(C(F)(F)F)cn3)N(C)c3ncc4ccn(C)c4n3)ccc2nc1N [Example 126, 2-amino-N',3-dimethyl-N'-(7-methyl-7H-pyrrolo[2,3-d]pyrimidin-2-yl)-N-((5-(trifluoromethyl)pyridin-2-yl)methyl)quinoline-6-carbohydrazide] | 1480 nM | 90 nM | 16.41 | 1.3 nM
7 | C=Cc1cccnc1N(C)N(Cc1ccc(C(F)(F)F)cn1)C(=O)c1ccc2nc(N)c(C)cc2c1 [Example 133, 2-amino-N',3-dimethyl-N-((5-(trifluoromethyl)pyridin-2-yl)methyl)-N'-(3-vinylpyridin-2-yl)quinoline-6-carbohydrazide] | 3400 nM | 312 nM | 10.89 | 3.6 nM
8 | C=C(C)c1cccnc1N(C)N(Cc1ccc(C(F)(F)F)cn1)C(=O)c1ccc2nc(N)c(C)cc2c1 [Example 135, 2-amino-N',3-dimethyl-N'-(3-(prop-1-en-2-yl)pyridin-2-yl)-N-((5-(trifluoromethyl)pyridin-2-yl)methyl)quinoline-6-carbohy drazide] | 2080 nM | 163 nM | 12.75 | 3.2 nM
9 | COc1nc(C)ccc1-c1ccc(CN(C(=O)c2ccc3nc(N)c(C)cc3c2)N(C)c2ncccn2)nc1 [Example 137, 2-amino-N-((2'-methoxy-6'-methyl-[3,3'-bipyridine]-6-yl)methyl)-N',3-dimethyl-N'-(pyrimidin-2-yl)quinoline-6-carbohydrazide] | 1990 nM | 110 nM | 18.07 | 1.3 nM
10 | Cc1cc2cc(C(=O)N(Cc3ccc(-c4ccc(C#N)nc4)cn3)N(C)c3ncccn3)ccc2nc1N [Example 139, 2-amino-N-((6'-cyano-[3,3'-bipyridine]-6-yl)methyl)-N',3-dimethyl-N'-(pyrimidin-2-yl)quinoline-6-carbohydrazide] | 281 nM | 22 nM | 12.77 | 3 nM
11 | Cc1cc2cc(C(=O)N(Cc3ccc(-c4ccc(N5CCN(C)CC5)nc4)cn3)N(C)c3ncccn3)ccc2nc1N [Example 140, 2-amino-N',3-dimethyl-N-((6'-(4-methylpiperazin-1-yl)-[3,3'-bipyridine]-6-yl)methyl)-N'-(pyrimidin-2-yl)quinoline-6-carbohydrazide] | 2060 nM | 46 nM | 44.67 | 1.6 nM
12 | Cc1cc2cc(C(=O)N(Cc3ccc(-c4ccccn4)cn3)N(C)c3ncccn3)ccc2nc1N [Example 141, N-([2,3'-bipyridine]-6'-ylmethyl)-2-amino -N',3-dimethyl-N'-(pyrimidin-2-yl)quino line-6-carbohydrazide] | 2030 nM | 76 nM | 26.76 | 2.3 nM
13 | Cc1cc2cc(C(=O)N(Cc3ccc(-c4cc[nH]n4)cn3)N(C)c3ncccn3)ccc2nc1N [Example 142, N-((5-(1H-pyrazol-3-yl)pyridin-2-yl)methyl)-2-amino-N',3-dimethyl-N'-(pyrimidin-2-yl)quinoline-6-carbohydrazide] | 3910 nM | 201 nM | 19.43 | 4.1 nM
14 | Cc1cc2cc(C(=O)N(Cc3ccc(-c4ccc(N)nc4)cn3)N(C)c3ncccn3)ccc2nc1N [Example 144, 2-amino-N-((6'-amino-[3,3'-bipyridine]-6-yl)methyl)-N',3-dimethyl-N'-(pyrimidin-2-yl)quinoline-6-carbohydrazide] | 616 nM | 26 nM | 23.69 | 1.5 nM
15 | Cc1cc2cc(C(=O)N(Cc3ccc(-c4cnc(N5CCN(C)CC5)nc4)cn3)N(C)c3ncccn3)ccc2nc1N [Example 147, 2-amino-N',3-dimethyl-N-((5-(2-(4-methylpiperazin-1-yl)pyrimidin-5-yl)pyridin-2-yl)methyl)-N'-(pyrimidin-2-yl)quinoline-6-carbohydrazide] | 1380 nM | 46 nM | 29.93 | 2.2 nM
16 | Cc1cc2cc(C(=O)N(Cc3ccc(-c4ccn(C)c4)cn3)N(C)c3ncccn3)ccc2nc1N [Example 148, 2-amino-N',3-dimethyl-N-((5-(1-methyl-1H-pyrrol-3-yl)pyridin-2-yl)methyl)-N'-(pyrimidin-2-yl)quinoline-6-carbohydrazide] | 3090 nM | 179 nM | 17.25 | 1 nM
17 | Cc1cc2cc(C(=O)N(Cc3ccc(-c4cnn(C5CCC5)c4)cn3)N(C)c3ncccn3)ccc2nc1N [Example 149, 2-amino-N-((5-(1-cyclobutyl-1H-pyrazol-4-yl)pyridin-2-yl)methyl)-N',3-dimethyl-N'-(pyrimidin-2-yl)quinoline-6-carbohydr azide] | 1590 nM | 99 nM | 16.02 | 2.9 nM
18 | Cc1ncc(-c2ccc(CN(C(=O)c3ccc4nc(N)c(C)cc4c3)N(C)c3ncccn3)nc2)s1 [Example 151, 2-amino-N',3-dimethyl-N-((5-(2-methylthiazol-5-yl)pyridin-2-yl)methyl)-N'-(pyrimidin-2-yl)quinoline-6-carbohydrazide] | 601 nM | 19 nM | 31.63 | 6.4 nM
19 | Cc1cc2cc(C(=O)N(Cc3ccc(-c4cnn(C)c4)cn3)N(c3ncccn3)C3CC3)ccc2nc1N [Example 152, 2-amino-N'-cyclopropyl-3-methyl-N-((5-(1-methyl-1H-pyrazol-4-yl)pyridin-2-yl)methyl)-N'-(pyrimidin-2-yl)quinoline-6-c arbohydrazide] | 998 nM | 35 nM | 28.51 | 4.4 nM
20 | Cc1cc2cc(C(=O)N(Cc3ccc(C4CC4)cn3)N(C)c3ncccn3)ccc2nc1N [Example 153, 2-amino-N-((5-cyclopropylpyridin-2-yl)methyl)-N',3-dimethyl-N'-(pyrimidin-2-yl)quinoline-6-carbohydrazide] | 1060 nM | 20 nM | 52.80 | 1.6 nM
21 | Cc1cc2cc(C(=O)N(Cc3ccc(-c4ccc(C(F)(F)F)nc4)cn3)N(C)c3ncccn3)ccc2nc1N [Example 154, 2-amino-N',3-dimethyl-N'-(pyrimidin-2-y 1)-N-((6'-(trifluoromethyl)-[3,3'-bipyridine]-6-yl)methyl)quinoline-6-carbohydrazide] | 833 nM | 60 nM | 13.88 | 1.6 nM
22 | Cc1cc2cc(C(=O)N(Cc3ccc(-c4ccc(=O)n(C)c4)cn3)N(C)c3ncccn3)ccc2nc1N [Example 155, 2-amino-N',3-dimethyl-N-((1'-methyl-6'-oxo-1',6'-dihydro-[3,3'-bipyridine]-6-yl)methyl)-N'-(pyrimidin-2-yl)quinoline-6-car bohydrazide] | 1260 nM | 42 nM | 30.00 | 2.3 nM
